Marks after values point to notes of the source that are not given here.
Experiments:
[1] = Particle size and polydispersity index of nanoparticle compositions (Zetasizer Nano ZS); assay type: physicochemical; details: for PDI (Polydispersity index): lipid nanoparticle, ±SD within one assay run (Table 37)
Method in brief: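 Particle size and PDI were measured on a Zetasizer Nano ZS with the nanoparticle compositions dispersed in 1×PBS.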

[2] = tested on: luciferase (Luc) mRNA; experiment: Luc expression, whole body bioluminescence after intravenous administration to mice; assay type: in vivo; details: for Fold increase in total body Luc Flux relative to MC3 at 6 h: Table 3A, i.v. administration; for Total Flux 3 hours / Total Flux 6 hours / Total Flux 24 hours: i.v., 0.5 mg/kg, Luc mRNA; for luciferase activity relative to MC3 LNP control: 0.5 mg/kg (mRNA dose)
Method in brief: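 Luc mRNA nanoparticle formulations given intravenously to mice (n=6) at 0.5 mg/kg; whole-body bioluminescence imaged at 3, 6 and 24 h. CD-1 mice received IP D-luciferin (200 μL of 15 mg/mL) 15 min before imaging; total flux quantified by region of interest.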

[3] = tested on: hEPO mRNA; experiment: hEPO expression after intramuscular administration to mice; assay type: in vivo; details: for Fold increase in hEPO concentration relative to MC3: mice, 0.01 mpk, 6 hr time point
[4] = tested on: luciferase (Luc) mRNA; experiment: Luc expression in liver, lung, spleen and femur 6 hours after intravenous administration; assay type: in vivo; details: mice, intravenous, 0.5 mpk
Method in brief: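 LNP-formulated mRNA given IV to mice (n=3) at 0.5 mpk; at 6 h, bioluminescence imaged ex vivo 15 min after IP D-luciferin (15 mg/mL, 200 μL), organs imaged within 25 min. Values are total flux by region of interest.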

[5] = tested on: sC5b-9; experiment: Complement activation in vitro (sC5b-9 levels); assay type: cell-based; details: human cells contacted in vitro
Method in brief: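 Human cells exposed in vitro to nanoparticle compositions, with the soluble terminal complement complex sC5b-9 measured as a marker of complement activation.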

[6] = tested on: luciferase mRNA; experiment: Luciferase expression after subcutaneous administration to mice; assay type: in vivo, female CD-1 mice
Method in brief: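 Female CD-1 mice given luciferase mRNA in lipid nanoparticle formulations subcutaneously at 0.5 mpk. Expression read by whole-body bioluminescence imaging at 3, 6 and 24 h, with ex vivo liver, spleen and injection-site luminescence at 24 h.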

[7] = tested on: hEPO mRNA; experiment: hEPO expression after subcutaneous administration to mice; assay type: in vivo, female CD-1 mice
Method in brief: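 Lipid nanoparticle formulations carrying hEPO or luciferase mRNA were given subcutaneously at 0.5 mpk to female CD-1 mice. Whole-body luminescence imaging was done at 3, 6 and 24 h. Liver, spleen and injection-site expression were assessed ex vivo at 24 h.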

[8] = Table 1A, lipid:DSPC:cholesterol:PEG-DMG 50:10:38.5:1.5 mol %
[9] = Table 1B, formulated with hEPO mRNA
[10] = Table 1C, compositions for subcutaneous administration
[11] = Table 1D, for subcutaneous administration, # formulated with hEPO mRNA
[12] = nanoparticle composition with hEPO mRNA (Table 30)
[13] = nanoparticle composition with mRNA encoding anti-HA antibody (Table 33)
[14] = nanoparticle of rat tolerability study (Table 43)

Compound	PDI ([1]; Table 1A)	Size (nm) [1, 8]	PDI [1, 9]	Size (nm) [1, 9]	PDI [1, 11]	Size (nm) [1, 11]	PDI (Polydispersity index) [1]	PDI [1, 12]	Fold increase in total body Luc Flux relative to MC3 at 6 h [2]	Total Flux 3 hours ([2]; mice)	Total Flux 6 hours ([2]; mice)	Total Flux 24 hours ([2]; mice)	luciferase activity relative to MC3 LNP control ([2]; mice, intravenous)	Fold increase in hEPO concentration relative to MC3 [3]	Total Flux Femur [4]	Total Flux Liver [4]	Total Flux Lung [4]	Total Flux Spleen [4]	Fold increase in sC5b-9 levels versus saline [5]	further results
CCCCCCCCCCCOC(=O)CCCCCN(CCO)CCCCCCCC(=O)OC(CCCCCCCC)CCCCCCCC [Compound 25, Heptadecan-9-yl 8-((2-hydroxyethyl)(6-oxo-6-(undecyloxy)hexyl)amino)octanoate]	0.10	85.8 nm	0.14	69.7 nm	0.13	77.6 nm	0.10 ± 0.05	0.230	1.89	2.27E+10	1.59E+10	9.77E+08	higher expression compared to MC3	7.1	4.40E+06	2.41E+09	1.51E+07	3.11E+07	1.02	PDI [1, 10]: 0.16; Size (nm) [1, 10]: 76.3 nm; Lipid/MC3 Luc expression ([2]; 0.5 mpk dose to mouse, 6 hours after administration): 1.89; Novel lipid/MC3 ratio, 6 hr. timepoint, i.v. ([2]; luciferase, intravenous, relative to MC3, Table 3G): 1.89; Novel lipid/MC3 expression ratio, 6 hr. time point, i.v. ([2]; luciferase, intravenous, relative to MC3 formulation): 1.89; Novel lipid/MC3 ratio, 6 hr. timepoint, i.m. hEPO ([3]; relative to MC3, Table 3G): 7.1; Novel lipid/MC3 expression ratio, s.c. Luc 0.5 mpk (AUC) ([6]; 0.5 mpk, AUC, relative to MC3): (AUC: 1.7); Lipid/MC3 AUC ratio ([6]; 0.5 mpk, luciferase): 1.70; AUC (luciferase expression) ([6]; 0.5 mpk, whole body BLI): 2.9156E+10 (p/s) * h; Novel lipid/MC3 ratio, s.c. Luc 6 hr. ([6]; 6 hr., relative to MC3, Table 3G): 1.73; Novel lipid/MC3 expression ratio, 6 hr. time point, s.c. hEPO 0.5 mpk ([7]; relative to MC3): 5.43
CCCCCCCCCOC(=O)CCCCCCCN(CCO)CCCCCCCC(=O)OC(CCCCCCCC)CCCCCCCC [Compound 18, Heptadecan-9-yl 8-((2-hydroxyethyl)(8-(nonyloxy)-8-oxooctyl)amino)octanoate]	018	87.9 nm	0.14	73.7 nm	0.11	75.0 nm	0.04 ± 0.06	0.230	3.22	1.71E+10	2.13E+10	2.51E+09	3 fold	8.6	4.68E+06	2.76E+09	1.25E+07	5.15E+07	1.28	PDI ([1]; lipid:DSPC:Chol:PEG-DMG (50:10:38.5:1.5), hEPO mRNA): 0.095; Diameter [1, 13]: 76.8 nm; PDI [1, 13]: 0.16; Diameter [1, 14]: 80 nm; PDI [1, 14]: 0.19; fold increase in Luc expression over MC3 formulations ([2]; intravenous administration, in words): highest fold increase; Fold increase in Luc expression relative to MC3, Intravenous (0.5 mpk dose) ([2]; intravenous, 0.5 mpk): 3.23; Average total flux (6 h, ffluc) ([2]; mice, intravenous, 6 h): 2.13 × 10^10; Fold increase in average total flux relative to MC3 ([2]; mice, intravenous, 6 h): 3.23; sC5b-9 levels relative to saline ([5]; in words): somewhat increase; Novel lipid/MC3 expression ratio, 6 hr. time point, s.c. Luc 0.05 mpk ([6]; 0.05 mpk, relative to MC3): 2.63; hEPO expression Lipid/MC3 ratio, 6 hr. ([7]; 0.5 mpk, 6 hr.): 2.63; hEPO expression Lipid/MC3 ratio, AUC ([7]; 0.5 mpk, AUC): 1.88
